Data taken from publication PMC7531004, “Discovery of gramicidin A analogues with altered activities by multidimensional screening of a one-bead-one-compound library” (Nature Communications, 2020).
Where a SMILES comes first, the peptide text is derived from it. [ ]: non-standard residue; d: D form. The star is where a group is joined. NHCH2CH2OH = OCCN*; For = O=C*

Tests used:
[1] = system: P388 mouse leukemia cells; conditions: 92 h
Procedure, shortened: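 Peptide stocks diluted 250× in growth medium; P388 cells 1 × 10^4 cells/mL final; 37 °C, 5% CO2, 92 h. WST-1 + 1-methoxy PMS, 4 h, A415. Output: % viability.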

[2] = system: Streptococcus pyogenes SSI-9; experiment: Antibacterial activity assay of bead-derived peptides (three concentrations); assay type: cell-based; parameters: key: +++: inhibition by the 640-fold diluted peptide solution; ++: inhibition by the 160-fold diluted solution; +: inhibition by the 40-fold diluted solution; -: no inhibition; conditions: S. pyogenes, bead-derived peptide solution, three concentrations
Procedure, shortened: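 Growth inhibition scored visually as precipitated bacteria after 37 °C, 18 h incubation. Streptococcus pyogenes SSI-9 inoculum of 2 × 10^5 CFU in Ca2+/Mg2+-adjusted Mueller Hinton broth plus 5% laked horse blood; peptides tested at three levels: stock, 4-fold and 16-fold DMSO dilutions.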

[3] = H+/Na+ transport assay of bead-derived peptides (one-point); assay type: biochemical; parameters: key: relative activity; mean of two control wells = 1.00; conditions: bead-derived peptide solution, EYPC/EYPG LUVs;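 also: relative to parent gramicidin A activity set to 1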
Procedure, shortened: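 One-point screen: peptide + pyranine-loaded LUVs, 30 min RT with vortexing, 96-well. Read-out is fluorescence intensity scaled as 100 × (Ix – I0)/(Imax – I0). Imax from Triton X-100, I0 from untreated vesicles, and the mean of the two control wells is set to 1.00.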

| Structure (SMILES) | cell viability/% [1] [%] | antibacterial activity [2] | H+/Na+ transport activity normalized against the value of 1 (1.00) [3] |
| --- | --- | --- | --- |
| CNC(=O)C[C@@H](NC(=O)[C@H](Cc1c[nH]c2ccccc12)NC(=O)[C@H](NC(=O)[C@@H](NC(=O)[C@@H](CC(C)C)NC(=O)[C@H](C)NC(=O)[C@@H](CC(C)C)NC(=O)[C@H](C)NC(=O)CNC(=O)[C@@H](NC=O)C(C)C)C(C)C)C(C)C)C(=O)N[C@@H](Cc1c[nH]c2ccccc12)C(=O)N[C@H](CC(C)C)C(=O)N[C@@H](Cc1c[nH]c2ccccc12)C(=O)N[C@@H](C(=O)N[C@@H](Cc1c[nH]c2ccccc12)C(=O)NCCO)C(C)C [compound 6889] (For-VGA[dL]A[dL]V[dV]W[dD](NHMe)W[dL]W[dV]W-NHCH2CH2OH) | 100.0 | - | 1.10 |
| CC(C)C[C@@H](NC(=O)[C@H](C)NC(=O)CNC(=O)[C@@H](NC=O)C(C)C)C(=O)N[C@@H](C)C(=O)N[C@@H](C(=O)N[C@H](C(=O)N[C@@H](C(=O)N[C@@H](Cc1c[nH]c2ccccc12)C(=O)N[C@H](CC(C)C)C(=O)N[C@@H](Cc1c[nH]c2ccccc12)C(=O)N[C@H](CC(C)C)C(=O)N[C@@H](Cc1c[nH]c2ccccc12)C(=O)N[C@H](CC(C)C)C(=O)N[C@@H](Cc1c[nH]c2ccccc12)C(=O)NCCO)[C@H](C)O)C(C)C)C(C)C [compound 6766] (For-VGA[dL]A[dV]V[dT]W[dL]W[dL]W[dL]W-NHCH2CH2OH) | 100.0 | + | 1.07 |
| CC(C)C[C@@H](NC(=O)[C@H](C)NC(=O)[C@H](NC(=O)[C@H](C)NC(=O)CNC(=O)[C@@H](NC=O)C(C)C)C(C)C)C(=O)N[C@H](C(=O)N[C@H](CC(C)C)C(=O)N[C@@H](Cc1c[nH]c2ccccc12)C(=O)N[C@@H](C(=O)N[C@@H](Cc1c[nH]c2ccccc12)C(=O)N[C@@H](C(=O)N[C@@H](Cc1c[nH]c2ccccc12)C(=O)N[C@@H](C(=O)N[C@@H](Cc1c[nH]c2ccccc12)C(=O)NCCO)C(C)C)C(C)C)C(C)C)C(C)C [compound 2212] (For-VGA[dV]A[dL]V[dL]W[dV]W[dV]W[dV]W-NHCH2CH2OH) | 11.5 | + | 1.18 |
| CC(C)C[C@@H](NC(=O)[C@H](C)NC(=O)[C@H](NC(=O)[C@H](C)NC(=O)CNC(=O)[C@@H](NC=O)C(C)C)C(C)C)C(=O)N[C@H](C(=O)N[C@H](CC(C)C)C(=O)N[C@@H](Cc1c[nH]c2ccccc12)C(=O)N[C@@H](C(=O)N[C@@H](Cc1c[nH]c2ccccc12)C(=O)N[C@@H](C(=O)N[C@@H](Cc1c[nH]c2ccccc12)C(=O)N[C@@H](C(=O)N[C@@H](Cc1c[nH]c2ccccc12)C(=O)NCCO)C(C)C)C(C)C)C(C)C)C(C)C [compound 2832] (For-VGA[dV]A[dL]V[dL]W[dV]W[dV]W[dV]W-NHCH2CH2OH) | 17.7 | + | 1.23 |
| CC(C)C[C@@H](NC(=O)[C@H](Cc1c[nH]c2ccccc12)NC(=O)[C@H](NC(=O)[C@H](Cc1c[nH]c2ccccc12)NC(=O)[C@H](NC(=O)[C@H](Cc1c[nH]c2ccccc12)NC(=O)[C@@H](CC(C)C)NC(=O)[C@@H](NC(=O)[C@H](NC(=O)[C@H](C)NC(=O)[C@H](NC(=O)[C@H](C)NC(=O)CNC(=O)[C@@H](NC=O)C(C)C)[C@H](C)O)C(C)C)C(C)C)C(C)C)C(C)C)C(=O)N[C@@H](Cc1c[nH]c2ccccc12)C(=O)NCCO [compound 9075] (For-VGA[dT]A[dV]V[dL]W[dV]W[dV]W[dL]W-NHCH2CH2OH) | 58.6 | - | 1.01 |
| CC(C)C[C@@H](NC(=O)[C@H](Cc1c[nH]c2ccccc12)NC(=O)[C@H](NC(=O)[C@H](Cc1c[nH]c2ccccc12)NC(=O)[C@@H](CC(C)C)NC(=O)[C@H](Cc1c[nH]c2ccccc12)NC(=O)[C@@H](CC(C)C)NC(=O)[C@@H](NC(=O)[C@H](NC(=O)[C@H](C)NC(=O)[C@H](NC(=O)[C@H](C)NC(=O)CNC(=O)[C@@H](NC=O)C(C)C)C(C)C)C(C)C)C(C)C)[C@H](C)O)C(=O)N[C@@H](Cc1c[nH]c2ccccc12)C(=O)NCCO [compound 457] (For-VGA[dV]A[dV]V[dL]W[dL]W[dT]W[dL]W-NHCH2CH2OH) | 95.8 | + | 1.08 |
| CC(C)C[C@@H](NC(=O)[C@H](C)NC(=O)CNC(=O)[C@@H](NC=O)C(C)C)C(=O)N[C@@H](C)C(=O)N[C@H](CC(C)C)C(=O)N[C@H](C(=O)N[C@H](CC(C)C)C(=O)N[C@@H](Cc1c[nH]c2ccccc12)C(=O)N[C@H](CC(C)C)C(=O)N[C@@H](Cc1c[nH]c2ccccc12)C(=O)N[C@H](CC(C)C)C(=O)N[C@@H](Cc1c[nH]c2ccccc12)C(=O)N[C@@H](C(=O)N[C@@H](Cc1c[nH]c2ccccc12)C(=O)NCCO)C(C)C)C(C)C [compound 8635] (For-VGA[dL]A[dL]V[dL]W[dL]W[dL]W[dV]W-NHCH2CH2OH) | 6.4 | + | 1.05 |
| CC(C)C[C@@H](NC(=O)[C@H](C)NC(=O)CNC(=O)[C@@H](NC=O)C(C)C)C(=O)N[C@@H](C)C(=O)N[C@@H](C(=O)N[C@H](C(=O)N[C@@H](C(=O)N[C@@H](Cc1c[nH]c2ccccc12)C(=O)N[C@@H](C(=O)N[C@@H](Cc1c[nH]c2ccccc12)C(=O)N[C@H](CC(C)C)C(=O)N[C@@H](Cc1c[nH]c2ccccc12)C(=O)N[C@@H](C(=O)N[C@@H](Cc1c[nH]c2ccccc12)C(=O)NCCO)C(C)C)C(C)C)[C@H](C)O)C(C)C)C(C)C [compound 5167] (For-VGA[dL]A[dV]V[dT]W[dV]W[dL]W[dV]W-NHCH2CH2OH) | 100.0 | - | 1.33 |
| CNC(=O)C[C@@H](NC(=O)[C@H](Cc1c[nH]c2ccccc12)NC(=O)[C@@H](CC(C)C)NC(=O)[C@H](Cc1c[nH]c2ccccc12)NC(=O)[C@H](NC(=O)[C@H](Cc1c[nH]c2ccccc12)NC(=O)[C@@H](CC(C)C)NC(=O)[C@@H](NC(=O)[C@H](NC(=O)[C@H](C)NC(=O)[C@@H](CC(C)C)NC(=O)[C@H](C)NC(=O)CNC(=O)[C@@H](NC=O)C(C)C)C(C)C)C(C)C)C(C)C)C(=O)N[C@@H](Cc1c[nH]c2ccccc12)C(=O)NCCO [compound 10043] (For-VGA[dL]A[dV]V[dL]W[dV]W[dL]W[dD](NHMe)W-NHCH2CH2OH) | 56.6 | - | 1.09 |
| CC(C)C[C@@H](NC(=O)[C@H](Cc1c[nH]c2ccccc12)NC(=O)[C@@H](CC(C)C)NC(=O)[C@H](Cc1c[nH]c2ccccc12)NC(=O)[C@H](NC(=O)[C@H](Cc1c[nH]c2ccccc12)NC(=O)[C@@H](CC(C)C)NC(=O)[C@@H](NC(=O)[C@H](NC(=O)[C@H](C)NC(=O)[C@H](NC(=O)[C@H](C)NC(=O)CNC(=O)[C@@H](NC=O)C(C)C)C(C)C)C(C)C)C(C)C)C(C)C)C(=O)N[C@@H](Cc1c[nH]c2ccccc12)C(=O)NCCO [compound 4329] (For-VGA[dV]A[dV]V[dL]W[dV]W[dL]W[dL]W-NHCH2CH2OH) | 14.3 | - | 1.18 |
| CC(C)C[C@@H](NC(=O)[C@H](C)NC(=O)[C@H](NC(=O)[C@H](C)NC(=O)CNC(=O)[C@@H](NC=O)C(C)C)[C@H](C)O)C(=O)N[C@H](C(=O)N[C@H](CC(C)C)C(=O)N[C@@H](Cc1c[nH]c2ccccc12)C(=O)N[C@@H](C(=O)N[C@@H](Cc1c[nH]c2ccccc12)C(=O)N[C@@H](C(=O)N[C@@H](Cc1c[nH]c2ccccc12)C(=O)N[C@H](CC(C)C)C(=O)N[C@@H](Cc1c[nH]c2ccccc12)C(=O)NCCO)C(C)C)C(C)C)C(C)C [compound 9145] (For-VGA[dT]A[dL]V[dL]W[dV]W[dV]W[dL]W-NHCH2CH2OH) | 70.9 | - | 1.03 |
| CC(C)C[C@@H](NC(=O)[C@H](C)NC(=O)CNC(=O)[C@@H](NC=O)C(C)C)C(=O)N[C@@H](C)C(=O)N[C@@H](C(=O)N[C@H](C(=O)N[C@H](CC(C)C)C(=O)N[C@@H](Cc1c[nH]c2ccccc12)C(=O)N[C@@H](C(=O)N[C@@H](Cc1c[nH]c2ccccc12)C(=O)N[C@H](CC(C)C)C(=O)N[C@@H](Cc1c[nH]c2ccccc12)C(=O)N[C@@H](C(=O)N[C@@H](Cc1c[nH]c2ccccc12)C(=O)NCCO)C(C)C)C(C)C)C(C)C)C(C)C [compound 3633] (For-VGA[dL]A[dV]V[dL]W[dV]W[dL]W[dV]W-NHCH2CH2OH) | 1.7 | - | 1.04 |
| CC(C)C[C@@H](NC(=O)[C@H](C)NC(=O)[C@H](NC(=O)[C@H](C)NC(=O)CNC(=O)[C@@H](NC=O)C(C)C)C(C)C)C(=O)N[C@H](C(=O)N[C@@H](C(=O)N[C@@H](Cc1c[nH]c2ccccc12)C(=O)N[C@H](CC(C)C)C(=O)N[C@@H](Cc1c[nH]c2ccccc12)C(=O)N[C@H](CC(C)C)C(=O)N[C@@H](Cc1c[nH]c2ccccc12)C(=O)N[C@@H](C(=O)N[C@@H](Cc1c[nH]c2ccccc12)C(=O)NCCO)C(C)C)[C@H](C)O)C(C)C [compound 8984] (For-VGA[dV]A[dL]V[dT]W[dL]W[dL]W[dV]W-NHCH2CH2OH) | 57.9 | - | 1.12 |
